Results reported in ChEMBL document CHEMBL1201862, “PubChem BioAssay data set” (2004).
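48-hour exposure; five concentrations; linearly interpolated endpoints. Abbreviation: GI50, concentration required for 50% inhibition of growth.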 Calls of active or inactive are those of the source. No stated cut-off is given here; in the data, active = GI50 up to about 1.1 µM and inactive = higher. *1 amine or outer side, *2 acyl side, *3 side chain or, on linkers, in order; H or OH if unused. Where a SMILES comes first, the peptide text is derived from it. Bridges are numbered along the chain shown (N, C = ends). [ ]: non-standard residue; d: D form. X36 = CC[C@H](C)[C@@H](N[*:1])[C@@H](O)CC(=O)O[C@H](C(=O)[C@H](C)C(=O)[*:2])C(C)C; NMeY = CN[C@@H](Cc1ccc(O)cc1)C(=O)O

Columns and labels:
Experiment in all cases: growth of human tumour cells (NCI), 48 h
HT-29 = system: HT-29
EKVX = system: EKVX
MCF7 = system: MCF7
OVCAR-4 = system: OVCAR-4
HCC 2998 = system: HCC 2998
A498 = system: A498
OVCAR-8 = system: OVCAR-8
SF-268 = system: SF-268
SR = system: SR
MOLT-4 = system: MOLT-4
IGROV-1 = system: IGROV-1
TK-10 = system: TK-10
MDA-MB-435 = system: MDA-MB-435
UACC-62 = system: UACC-62
HOP-62 = system: HOP-62
RPMI-8226 = system: RPMI-8226
Hs-578T = system: Hs-578T
CCRF-CEM = system: CCRF-CEM
Malme-3M = system: Malme-3M
NCI-H226 = system: NCI-H226

Compound	GI50 (HT-29)	GI50 (EKVX)	GI50 (MCF7)	GI50 (OVCAR-4)	GI50 (HCC 2998)	GI50 (A498)	GI50 (OVCAR-8)	GI50 (SF-268)	GI50 (SR)	GI50 (MOLT-4)	GI50 (IGROV-1)	GI50 (TK-10)	GI50 (MDA-MB-435)	GI50 (UACC-62)	GI50 (HOP-62)	GI50 (RPMI-8226)	GI50 (Hs-578T)	GI50 (CCRF-CEM)	GI50 (Malme-3M)	GI50 (NCI-H226)
Oc1c(Br)cc(/C=C/c2cccc(/C=C/c3cc(Br)c(O)c(Br)c3)n2)cc1Br	12.6 µM (inactive)	14.8 µM (inactive)	15.5 µM (inactive)	13.3 µM (inactive)	6.5 µM (inactive)	8.2 µM (inactive)	13 µM (inactive)	15 µM (inactive)	5.15 µM (inactive)	3.43 µM (inactive)	13.4 µM (inactive)	14.2 µM (inactive)	13.5 µM (inactive)	15.7 µM (inactive)	31.6 µM (inactive)	11.5 µM (inactive)	17.5 µM (inactive)			
Cc1nnc(CC#N)n1NC(=O)CC#N	> 100 µM (inactive)	> 100 µM (inactive)	> 100 µM (inactive)		> 100 µM (inactive)	> 100 µM (inactive)	> 100 µM (inactive)	> 100 µM (inactive)	> 100 µM (inactive)	> 100 µM (inactive)	> 100 µM (inactive)	> 100 µM (inactive)	> 100 µM (inactive)	> 100 µM (inactive)	> 100 µM (inactive)		> 100 µM (inactive)	> 100 µM (inactive)	> 100 µM (inactive)	
Cc1cc(O)c2c3c(ccc2c1)C(=O)c1c(O)cccc1C3=O [TETRANGULOL]	8.15 µM (inactive)	7.14 µM (inactive)	3.3 µM (inactive)	4.57 µM (inactive)	5.15 µM (inactive)	> 100 µM (inactive)	9.68 µM (inactive)	5.66 µM (inactive)	1.36 µM (inactive)	5.48 µM (inactive)	2.21 µM (inactive)	54.5 µM (inactive)	0.179 µM (active)	1.55 µM (inactive)	16.3 µM (inactive)	> 28.5 µM (inactive)	> 40.9 µM (inactive)	30.1 µM (inactive)	0.0157 µM (active)	
CC[C@H](C)[C@H]1NC(=O)[C@@H](N)[C@@H](C)OC(=O)[C@H](Cc2ccc(OC)cc2)N(C)C(=O)[C@@H]2CCCN2C(=O)[C@H](CC(C)C)NC(=O)[C@@H](C)C(=O)[C@H](C(C)C)OC(=O)C[C@@H]1O (H-T[X36]LP[NMeY](Me); ester 1-C)	3.67 µM (inactive)	44.2 µM (inactive)	33.7 µM (inactive)	54.5 µM (inactive)	54.1 µM (inactive)		50.7 µM (inactive)	49.5 µM (inactive)	16.3 µM (inactive)	6.85 µM (inactive)	10.1 µM (inactive)	36.7 µM (inactive)	15.5 µM (inactive)	29.9 µM (inactive)	14.7 µM (inactive)	12.7 µM (inactive)	12.2 µM (inactive)	22.3 µM (inactive)	31.7 µM (inactive)	37.2 µM (inactive)
CN1C(=O)C2(c3ccccc31)C1CC3C(CO1)C1C2C3(CO)CN1C#N (stereo unspecified)	> 100 µM (inactive)	> 100 µM (inactive)	> 100 µM (inactive)	> 100 µM (inactive)	> 100 µM (inactive)		> 100 µM (inactive)	> 100 µM (inactive)	> 100 µM (inactive)	> 100 µM (inactive)	> 100 µM (inactive)	> 100 µM (inactive)	> 100 µM (inactive)	> 100 µM (inactive)	> 100 µM (inactive)	> 100 µM (inactive)	> 100 µM (inactive)	> 100 µM (inactive)	> 100 µM (inactive)	> 100 µM (inactive)
